Data taken from PubChem BioAssay AID1259408 (Genetic Toxicology Data Bank (GENE-TOX), 2018).
Active and inactive are the calls of the source. No rule for the calls is given here.

Tested on: GENE-TOX genotoxicity assays, various organisms and cells
Test: GENE-TOX mutagenicity studies
Conditions: for call: Assay Type: In vivo carcinogenicity studies
[1] = Species/Cell Type: Nonhuman, Assay Type: Sister-chromatid exchange (SCE) in vivo, Assay Code: SC3T, Evaluation Type: Evaluation B (Post-1980)
[2] = Species/Cell Type: Salmonella typhimurium (one or more of the five standard strains: TA98, TA100, TA1535, TA1537, and TA1538), Assay Type: Histidine reverse gene mutation, Ames assay, Assay Code: SAL-, Evaluation Type: Evaluation A (Pre-1980)
[3] = Species/Cell Type: Salmonella typhimurium (one or more of the five standard strains: TA98, TA100, TA1535, TA1537, and TA1538), Assay Type: Histidine reverse gene mutation, Ames assay, Assay Code: SAL+*, Activation: With metabolic activation, Evaluation Type: Evaluation A (Pre-1980)
[4] = Species/Cell Type: Saccharomyces cerevisiae, Assay Type: Reverse gene mutation, Assay Code: YERT, Evaluation Type: Evaluation A (Pre-1980)
[5] = Species/Cell Type: Saccharomyces cerevisiae, Assay Type: Mitotic recombination or gene conversion, Assay Code: YEC-, Evaluation Type: Evaluation A (Pre-1980)

c1ccc2c(c1)Cc1ccccc1-2
mutagenic call [1]: no conclusion
mutagenic call [2]: inactive; negative

CC1=CC(=C(c2ccc(N)cc2)c2ccc(N)cc2)C=CC1=N
mutagenic call (Species/Cell Type: Bacillus subtilis (H17 vs M45), Assay Type: Rec-assay, spot test, DNA effects (bacterial DNA repair), Assay Code: REWT, Evaluation Type: Evaluation A (Pre-1980)): no conclusion

CCCCN(CCC(C)=O)N=O
mutagenic call [3]: active; positive

CC(=O)C(N=Nc1ccc(-c2ccc(N=NC(C(C)=O)C(=O)Nc3ccccc3)c(Cl)c2)cc1Cl)C(=O)Nc1ccccc1 (stereo not given)
call (Species/Cell Type: Nonhuman, Assay Code: CCG-, Evaluation Type: Evaluation A (Pre-1980)): inactive; negative

CCOP(=S)(OCC)Oc1ccc(Cl)cc1Cl
mutagenic call (Species/Cell Type: Human, Assay Type: Sister-chromatid exchange (SCE) in vitro, Assay Code: SC1+D, Dose Response: With dose response, Evaluation Type: Evaluation B (Post-1980)): active; positive

CCOC(=O)COc1ccc(Cl)cc1CCl (tested in a mixture with another compound)
mutagenic call [4]: no conclusion

CCCCCc1cc(OC(=O)CCCN2CCOCC2)c2c(c1)OC(C)(C)[C@@H]1CCC(C)=C[C@@H]21
mutagenic call (Species/Cell Type: Human diploid fibroblasts, Assay Type: Unscheduled DNA synthesis (UDS) in vitro, DNA effects, Assay Code: UDH-, Evaluation Type: Evaluation A (Pre-1980)): inactive; negative

[Cl][Cu]
mutagenic call (Species/Cell Type: Bacillus subtilis (H17 vs M45), Assay Type: Rec-assay, spot test, DNA effects (bacterial DNA repair), Assay Code: REW-, Evaluation Type: Evaluation A (Pre-1980)): inactive; negative

CC(=O)c1ccc(S(=O)(=O)NC(=O)NC2CCCCC2)cc1
mutagenic call [1]: no conclusion

C[C@H]1CCC[C@@]2(C)CCCC[C@]12O
mutagenic call [2]: inactive; negative

COc1cc(/C=N/NC(=O)COc2ccc(Br)cc2CN2CCOCC2)ccc1O
mutagenic call [4]: no conclusion

[Cl-].[Cl-].[Cl-].[Cl-].[Cl-].[Cl-].[Mo]
mutagenic call (Species/Cell Type: Syrian hamster embryo (SA7/SHE) cells, Assay Type: Cell transformation, viral enhanced, Assay Code: CT7+, Evaluation Type: Evaluation A (Pre-1980)): active; positive

CC1=CCc2c1c(C)cc1c2ccc2ccccc21
mutagenic call [3]: active; positive

CC1=CCCc2c1cc(C)c1c2ccc2ccccc21
mutagenic call [3]: active; positive

COS(=O)(=O)OC
mutagenic call (Species/Cell Type: Arabidopsis species, Assay Type: Gene mutation, Assay Code: ARM+, Evaluation Type: Evaluation A (Pre-1980)): active; positive
mutagenic call (Species/Cell Type: Aspergillus nidulans, Assay Type: Forward gene mutation, Assay Code: ASF+, Evaluation Type: Evaluation A (Pre-1980)): active; positive
mutagenic call (Species/Cell Type: Chinese hamster ovary (CHO) cells, Assay Type: Forward gene mutation at the HPRT locus, Assay Code: CHO+D, Dose Response: With dose response, Evaluation Type: Evaluation A (Pre-1980)): active; positive
mutagenic call (Species/Cell Type: Drosophila melanogaster, Assay Type: Aneuploidy, partial sex chromosome loss, chromosome aberrations, Assay Code: DAP-M, Evaluation Type: Evaluation A (Pre-1980)): inactive; negative
mutagenic call (Species/Cell Type: Drosophila melanogaster, Assay Type: Aneuploidy, whole sex chromosome loss, chromosome aberrations, Assay Code: DAC+M, Evaluation Type: Evaluation A (Pre-1980)): active; positive
mutagenic call (Species/Cell Type: Drosophila melanogaster, Assay Type: Sex-linked recessive lethal gene mutation, Assay Code: SRL+, Evaluation Type: Evaluation A (Pre-1980)): active; positive
mutagenic call (Species/Cell Type: Drosophila melanogaster, Sex: Male, Assay Type: Heritable translocation test, chromosome aberrations, Assay Code: DHT+, Evaluation Type: Evaluation A (Pre-1980)): active; positive
mutagenic call (Species/Cell Type: Escherichia coli polA (W3119 vs P3478), Assay Type: Rec-assay, DNA effects (bacterial DNA repair), Assay Code: RE1+, Evaluation Type: Evaluation A (Pre-1980)): active; positive
mutagenic call (Species/Cell Type: Human, Assay Type: Sister-chromatid exchange (SCE) in vitro, Assay Code: SC1+D, Dose Response: With dose response, Evaluation Type: Evaluation A (Pre-1980)): active; positive
mutagenic call (Species/Cell Type: Nonhuman, Assay Type: Chromosome aberrations in vitro, Assay Code: CY&+, Evaluation Type: Evaluation A (Pre-1980)): active; positive
call (Species/Cell Type: Nonhuman, Assay Code: CCG+, Evaluation Type: Evaluation A (Pre-1980)): active; positive
mutagenic call (Species/Cell Type: Nonhuman, Assay Type: Sister-chromatid exchange (SCE) in vitro, Assay Code: SC2+, Evaluation Type: Evaluation A (Pre-1980)): active; positive
mutagenic call (Species/Cell Type: Saccharomyces cerevisiae, Assay Type: Reverse gene mutation, Assay Code: YER+, Evaluation Type: Evaluation A (Pre-1980)): active; positive
mutagenic call (Species/Cell Type: Salmonella typhimurium (one or more of the five standard strains: TA98, TA100, TA1535, TA1537, and TA1538), Assay Type: Histidine reverse gene mutation, Ames assay, Assay Code: SALT, Evaluation Type: Evaluation A (Pre-1980)): no conclusion
mutagenic call (Species/Cell Type: Salmonella typhimurium, Assay Type: Forward and reverse gene mutation, host-mediated assay, Assay Code: HMA+, Evaluation Type: Evaluation A (Pre-1980)): active; positive
mutagenic call (Species/Cell Type: Schizosaccharomyces pombe, Assay Type: Reverse gene mutation, Assay Code: YEZ+, Evaluation Type: Evaluation A (Pre-1980)): active; positive

O=S(=O)(O)c1ccc2c(N=Nc3ccc(S(=O)(=O)O)c4ccccc34)c(O)ccc2c1
mutagenic call [5]: inactive; negative

CCNc1nc(Cl)nc(NCC)n1 (tested in a mixture with another compound)
mutagenic call [5]: inactive; negative

NC(=O)N1c2ccccc2C=Cc2ccc(O)cc21
mutagenic call (Species/Cell Type: Human lymphocytes, Assay Type: Sister-chromatid exchange (SCE) in vitro, Assay Code: SCLT, Evaluation Type: Evaluation B (Post-1980)): no conclusion
mutagenic call (Species/Cell Type: Human, Assay Type: Sister-chromatid exchange (SCE) in vitro, Assay Code: SC1T, Evaluation Type: Evaluation B (Post-1980)): no conclusion
